Laboratory results: patent US10301261B2, “Substituted indoles as modulators of ROR-gamma” (Vitae Pharmaceuticals, LLC, priority 2015, dated 2019)

How the values were obtained:
[1] = molecular target: recombinant RORγ Ligand Binding Domain (LBD) protein (Homo sapiens (Human), UniProt P51449); assay: Radio-Ligand RORγ Binding Assay (Assay 1); settings: radio-ligand 25-hydroxy [26,27-3H]-cholesterol competition
How it was run: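 Cell-free competition with 25-hydroxy[26,27-³H]-cholesterol for the ligand site of 6×His-GST-tagged RORγ LBD; SPA read-out with poly-Lys YSi beads after shaking and incubation at rt. IC50 taken as the inflection point of a four-parameter fit of percent inhibition vs concentration.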

[2] = molecular target: full-length RORγt in Jurkat cells (Homo sapiens (Human), UniProt P51449); assay: RORγt 5×RORE Assay in Jurkat Cells (Assay 2); assay type: cell-based; settings: RORγt 5×RORE Nanoluc reporter
Chain of full-length RORγt in Jurkat cells (P51449 other isoform, or with tags, fused parts or gaps): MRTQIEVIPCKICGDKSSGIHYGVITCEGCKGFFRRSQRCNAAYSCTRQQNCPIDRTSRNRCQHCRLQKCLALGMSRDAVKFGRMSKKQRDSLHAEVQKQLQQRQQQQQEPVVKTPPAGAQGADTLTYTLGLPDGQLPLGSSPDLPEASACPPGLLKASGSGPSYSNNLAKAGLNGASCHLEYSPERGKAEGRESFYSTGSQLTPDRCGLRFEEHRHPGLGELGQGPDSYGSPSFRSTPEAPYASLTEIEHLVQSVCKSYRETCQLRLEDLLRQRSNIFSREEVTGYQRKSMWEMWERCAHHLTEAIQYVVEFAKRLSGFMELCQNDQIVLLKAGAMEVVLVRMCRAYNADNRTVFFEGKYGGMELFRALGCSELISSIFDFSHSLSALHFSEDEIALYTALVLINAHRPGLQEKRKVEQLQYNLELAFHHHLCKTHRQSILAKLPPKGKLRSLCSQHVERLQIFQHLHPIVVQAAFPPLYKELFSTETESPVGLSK

Chain of recombinant RORγ Ligand Binding Domain (LBD) protein (P51449 269-508): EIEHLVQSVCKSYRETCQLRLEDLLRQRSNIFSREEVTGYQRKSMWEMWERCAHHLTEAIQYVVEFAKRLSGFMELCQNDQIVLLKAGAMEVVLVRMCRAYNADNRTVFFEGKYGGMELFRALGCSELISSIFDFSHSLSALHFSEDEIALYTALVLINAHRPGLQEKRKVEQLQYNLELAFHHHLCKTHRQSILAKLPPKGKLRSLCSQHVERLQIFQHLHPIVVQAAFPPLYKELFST

| Molecule | Ki [1] [nM] | IC50 [2] [nM] |
| --- | --- | --- |
| CCn1c(C[C@H]2CC[C@H](C(F)(F)F)CC2)nc2cc(C(=O)NCc3ccc(S(=O)(=O)CC)cc3)ccc21 [BE-20, 1-ethyl-N-(4-(ethylsulfonyl)benzyl)-2-(((1r,4r)-4-(trifluoromethyl)cyclohexyl)methyl)-1H-benzo[d]imidazole-5-carboxamide] | < 100 | < 100 |
| 1-ethyl-N-((5-(ethylsulfonyl)pyridin-2-yl)methyl)-2-(((1s,4s)-4-(trifluoromethyl)cyclohexyl)methyl)-1H-indole-5-carboxamide [IN-15.2] | < 100 | > 1000 |
| CCS(=O)(=O)c1ccc([C@H](CO)NC(=O)c2ccc3c(c2)nc(CN2CCC(C(F)(F)F)CC2)n3C2CC2)cc1 [BE-54, (R)-1-cyclopropyl-N-(1-(4-(ethylsulfonyl)phenyl)-2-hydroxyethyl)-2-((4-(trifluoromethyl)piperidin-1-yl)methyl)-1H-benzo[d]imidazole-5-carboxamide] | < 100 | < 100 |
| CCn1c(Cc2ccc3c(c2)OC(F)(F)O3)cc2cc(C(=O)N[C@@H](CO)c3ccc(S(=O)(=O)CC)cn3)ccc21 [IN-5, (R)-2-((2,2-difluorobenzo[d][1,3]dioxol-5-yl)methyl)-1-ethyl-N-(1-(5-(ethylsulfonyl)pyridin-2-yl)-2-hydroxyethyl)-1H-indole-5-carboxamide] | < 100 | < 100 |
| CCS(=O)(=O)c1ccc(CNC(=O)c2ccc3c(c2)nc(CN2CCC(C(F)(F)F)CC2)n3CC(C)C)cc1 [BE-53, N-(4-(ethylsulfonyl)benzyl)-1-isobutyl-2-((4-(trifluoromethyl)piperidin-1-yl)methyl)-1H-benzo[d]imidazole-5-carboxamide] | < 100 | < 100 |
| CCS(=O)(=O)c1ccc(CNC(=O)c2cnc3c(c2)cc(C[C@H]2CC[C@H](C(F)(F)F)CC2)n3C2CC2)cc1 [AI-1, 1-cyclopropyl-N-(4-(ethylsulfonyl)benzyl)-2-(((1r,4r)-4-(trifluoromethyl)cyclohexyl)methyl)-1H-pyrrolo[2,3-b]pyridine-5-carboxamide] | < 100 | < 100 |
| CCn1c(Oc2ccc(OC(F)(F)F)cc2)nc2cc(C(=O)N[C@@H](CO)c3ccc(S(=O)(=O)CC)cc3)ccc21 [BE-9, (R)-1-ethyl-N-(1-(4-(ethylsulfonyl)phenyl)-2-hydroxyethyl)-2-(4-(trifluoromethoxy)phenoxy)-1H-benzo[d]imidazole-5-carboxamide] | < 100 | < 100 |
| CCS(=O)(=O)c1ccc(CNC(=O)c2ccc3c(c2)nc(C[C@H]2CC[C@@H](C(F)(F)F)CC2)n3CC(C)C)nc1 [BE-26.2, N-((5-(ethylsulfonyl)pyridin-2-yl)methyl)-1-isobutyl-2-(((1s,4s)-4-(trifluoromethyl)cyclohexyl)methyl)-1H-benzo[d]imidazole-5-carboxamide] | < 100 | > 1000 |
| CCn1c(C[C@H]2CC[C@H](C(F)(F)F)CC2)cc2cc(C(=O)NCc3ccc(S(=O)(=O)CC)cc3)ccc21 [IN-17.1, 1-ethyl-N-(4-(ethylsulfonyl)benzyl)-2-(((1r,4r)-4-(trifluoromethyl)cyclohexyl)methyl)-1H-indole-5-carboxamide] | < 100 | < 100 |
| CCn1c(Cc2ccc(C(F)(F)F)cc2)cc2cc(C(=O)NCc3ccc(S(=O)(=O)CC)cn3)ccc21 [IN-2, 1-ethyl-N-((5-(ethylsulfonyl)pyridin-2-yl)methyl)-2-(4-(trifluoromethyl)benzyl)-1H-indole-5-carboxamide] | < 100 | < 100 |
| CCS(=O)(=O)c1ccc(CNC(=O)c2ccc3c(c2)nc(C[C@H]2CC[C@@H](C(F)(F)F)CC2)n3C2CC2)cc1 [BE-18.2, 1-cyclopropyl-N-(4-(ethylsulfonyl)benzyl)-2-((cis-4-(trifluoromethyl)cyclohexyl)methyl)-1H-benzo[d]imidazole-5-carboxamide] | < 100 | > 1000 |
